# Measured values as given in patent US12246022B2, “Compositions and methods for treating, preventing or reversing age associated inflammation and disorders” (BROWN UNIVERSITY, priority 2019, dated 2025).
# “And” between values parts separate entries of the source, which are not always exact repeats. Identical values can stand only once.
# Key:
# [1] = tested on: L1, p16, IFN-I and SASP gene expression; assay: RT-qPCR of L1, p16, IFN-I and SASP genes in mouse tissues after drug in drinking water; type: in vivo; details: for IFNA Individual Foldchanges / IL6 Individual Foldchanges / IRF7 Individual Foldchanges / L1 Individual Foldchanges / MMP3 Individual Foldchanges / OAS1 Individual Foldchanges / PAI Individual Foldchanges / p16 Individual Foldchanges: one animal per line, listed as 3TC; for IFNA Age-group Foldchanges / IL6 Age-group Foldchanges / IRF7 Age-group Foldchanges / L1 Age-group Foldchanges / MMP3 Age-group Foldchanges / OAS1 Age-group Foldchanges / PAI Age-group Foldchanges / p16 Age-group Foldchanges: relative to 05 mo-WT
# Experimental: C57BL/6J mice of both sexes were obtained from the NIA Aged Rodent Colonies^61 at 5 and 18 months of age. The 5-month old animals were sacrificed after a short (1 week) acclimatization period, a variety of tissues were harvested, snap frozen in LN2 and stored at −80° C. The 18-month old animals were housed until they reached a desired age. Mice were housed in a specific pathogen-free AAALAC-certified barrier facility. Cages, bedding (Sani-chip hardwood bedding) and food (Purina Lab Chow 5010) were sterilized by autoclaving. Food and water (also sterilized) were provided ad libitum. A light-dark cycle of 12 hours was used (7 AM On, 7 PM Off). Temperature was maintained at 70° F., and humidity at 50%. All animals were observed daily and weighed once per week. In a pilot experiment, three cohorts of 10 animals each were treated with 3TC dissolved in drinking water (1.5 mg/ml, 2.0 mg/ml, 2.5 mg/ml) continuously from 18 months until sacrifice at 24 months. The fourth (control) cohort was provided with the same water without drug. […] Once during the experiment (at 20 months of age) the animals were subjected to a single tail bleed of approximately 70 μL. […] They were then assigned randomly to two cohorts by a technician that was blinded to the appearance or other characteristics of the animals. One cohort was treated for 2 weeks with 2 mg/mL of 3TC in drinking water, and the other (control) cohort with same water without drug, administered in the same manner. At the end of the treatment period all animals were sacrificed and harvested for tissues as described above. All the animals in both cohorts were all included in all subsequent analyses. The experiment was performed on separate occasions with male and female animals.
# Reverse transcription qPCR (RT-qPCR) of RNA was performed using the SYBR Green system (Applied Biosystems). Polyadenylated RNA was used in all experiments assessing transcription of L1 elements, and total RNA was used for all other genes. Total RNA was harvested using the Trizol reagent (Invitrogen). Poly(A) RNA was isolated from total RNA using the NEBNext Poly(A) mRNA Magnetic Isolation Module (New England Biolabs). 1 μg of total RNA, or 10 ng of poly(A) RNA, were reverse-transcribed into cDNA in 50 μL reactions using the TaqMan kit (Applied Biosystems). To assess strand-specific transcription, the random primers in the RT reaction were substituted with a strand-specific primer to the target RNA. 1 μL of each RT reaction was used in subsequent qPCR reactions. […] The arithmetic mean of Gapdh and two additional controls (Hsp90 and GusB) was used for normalization of RT-qPCR experiments with murine tissues, with the exception of liver that was normalized to Hsp90 and GusB. For measuring L1 transcription, poly(A) RNA samples were exhaustively digested with RNase-free DNase (Qiagen) prior to the synthesis of cDNA6. Effectiveness of the DNase digestion was assessed using controls that omitted the RT enzyme.
# [2] = 3TC concentration in mouse plasma; type: in vivo; details: both sexes, C57BL/6J, oral, mice, 2 mg/mL in drinking water cohort, tail bleed at 20 months of age
# Experimental: (§1) C57BL/6J mice of both sexes were obtained from the NIA Aged Rodent Colonies^61 at 5 and 18 months of age. The 5-month old animals were sacrificed after a short (1 week) acclimatization period, a variety of tissues were harvested, snap frozen in LN2 and stored at −80° C. The 18-month old animals were housed until they reached a desired age. Mice were housed in a specific pathogen-free AAALAC-certified barrier facility. Cages, bedding (Sani-chip hardwood bedding) and food (Purina Lab Chow 5010) were sterilized by autoclaving. Food and water (also sterilized) were provided ad libitum. A light-dark cycle of 12 hours was used (7 AM On, 7 PM Off). Temperature was maintained at 70° F., and humidity at 50%. All animals were observed daily and weighed once per week. In a pilot experiment, three cohorts of 10 animals each were treated with 3TC dissolved in drinking water (1.5 mg/ml, 2.0 mg/ml, 2.5 mg/ml) continuously from 18 months until sacrifice at 24 months. The fourth (control) cohort was provided with the same water without drug. […] Once during the experiment (at 20 months of age) the animals were subjected to a single tail bleed of approximately 70 μL. The collected plasma was shipped to the University of North Carolina CFAR Clinical Pharmacology and Analytical Chemistry Core for analysis of 3TC. For the 2 mg/mL cohort the concentration of 3TC in plasma averaged 7.2 μM. […]
# [3] = type: in vivo; details: mice, 1.5, 2.0, 2.5 mg/ml in drinking water from 18 to 24 months
# Experimental: as §1
structure (smiles),measurement,setting,value
Nc1ccn([C@@H]2CS[C@H](CO)O2)c(=O)n1 [Lamivudine],IFNA Individual Foldchanges,[1]; 05 mo mice + 3TC,1.821 and 2.748 and 2.909 and 0.645 and 0.465 and 0.346
same,IL6 Individual Foldchanges,[1]; 05 mo mice + 3TC,1.455 and 0.924 and 5.604 and 1.622 and 1.920 and 0.751
same,IRF7 Individual Foldchanges,[1]; 05 mo mice + 3TC,1.040 and 1.153 and 1.132 and 0.684 and 0.565 and 0.960
same,L1 Individual Foldchanges,[1]; 05 mo mice + 3TC,1.458 and 1.464 and 0.484 and 1.829 and 2.537 and 0.747
same,MMP3 Individual Foldchanges,[1]; 05 mo mice + 3TC,1.587 and 0.601 and 1.946 and 0.711 and 0.635 and 0.476
same,OAS1 Individual Foldchanges,[1]; 05 mo mice + 3TC,2.867 and 1.521 and 6.031 and 1.317 and 0.037 and 1.603
same,PAI Individual Foldchanges,[1]; 05 mo mice + 3TC,2.291 and 0.842 and 2.212 and 1.683 and 0.180 and 0.380
same,p16 Individual Foldchanges,[1]; 05 mo mice + 3TC,2.881 and 0.457 and 0.957 and 0.270 and 0.104 and 0.541
same,IFNA Age-group Foldchanges,[1]; 05 mo mice + 3TC,1.489
same,IL6 Age-group Foldchanges,[1]; 05 mo mice + 3TC,2.046
same,IRF7 Age-group Foldchanges,[1]; 05 mo mice + 3TC,0.922
same,L1 Age-group Foldchanges,[1]; 05 mo mice + 3TC,1.420
same,MMP3 Age-group Foldchanges,[1]; 05 mo mice + 3TC,0.993
same,OAS1 Age-group Foldchanges,[1]; 05 mo mice + 3TC,2.229
same,PAI Age-group Foldchanges,[1]; 05 mo mice + 3TC,1.265
same,p16 Age-group Foldchanges,[1]; 05 mo mice + 3TC,0.868
same,IFNA Individual Foldchanges,[1]; 26 mo mice + 3TC,10.115 and 2.941 and 4.156 and 1.283 and 1.601 and 8.335 and 19.836 and 3.982 and 6.531 and 8.332 and 5.514 and 6.321
same,IL6 Individual Foldchanges,[1]; 26 mo mice + 3TC,1.116 and 1.553 and 2.194 and 0.686 and 1.395 and 1.291 and 8.067 and 0.654 and 2.119 and 3.177 and 1.148 and 4.866
same,IRF7 Individual Foldchanges,[1]; 26 mo mice + 3TC,0.540 and 0.506 and 0.498 and 0.424 and 0.954 and 3.302 and 0.993 and 1.155 and 0.950 and 1.866
same,L1 Individual Foldchanges,[1]; 26 mo mice + 3TC,2.819 and 2.160 and 2.053 and 1.491 and 6.524 and 2.863 and 7.191 and 5.433 and 3.817 and 4.409 and 5.864 and 2.745
same,MMP3 Individual Foldchanges,[1]; 26 mo mice + 3TC,1.044 and 0.972 and 1.618 and 1.650 and 1.033 and 1.166 and 4.484 and 0.374 and 1.543 and 3.656 and 1.964 and 1.637
same,OAS1 Individual Foldchanges,[1]; 26 mo mice + 3TC,1.658 and 0.643 and 0.055 and 0.482 and 1.094 and 0.695 and 7.091 and 3.841 and 1.945 and 0.636 and 0.565 and 1.469
same,PAI Individual Foldchanges,[1]; 26 mo mice + 3TC,1.034 and 1.056 and 2.696 and 0.493 and 1.562 and 1.675 and 2.347 and 0.529 and 0.747 and 8.508 and 6.112 and 7.313
same,p16 Individual Foldchanges,[1]; 26 mo mice + 3TC,2.290 and 3.653 and 1.731 and 1.168 and 0.844 and 1.243 and 3.690 and 2.458 and 2.135 and 4.053 and 1.969 and 1.326
same,IFNA Age-group Foldchanges,[1]; 26 mo mice + 3TC,6.579
same,IL6 Age-group Foldchanges,[1]; 26 mo mice + 3TC,2.355
same,IRF7 Age-group Foldchanges,[1]; 26 mo mice + 3TC,1.076
same,L1 Age-group Foldchanges,[1]; 26 mo mice + 3TC,3.947
same,MMP3 Age-group Foldchanges,[1]; 26 mo mice + 3TC,1.762
same,OAS1 Age-group Foldchanges,[1]; 26 mo mice + 3TC,1.681
same,PAI Age-group Foldchanges,[1]; 26 mo mice + 3TC,2.839
same,p16 Age-group Foldchanges,[1]; 26 mo mice + 3TC,2.213
same,concentration at 2 months of continuous dosing (sampled at 20 months of age),[2],7.2 µM
same,"behavior, weight, or survival versus control cohort",[3],"No significant differences in behavior, weight, or survival"
